In ChEMBL document CHEMBL4725254, “Irregularly Bridged Epipolythiodioxopiperazines and Related Analogues: Sources, Structures, and Biological Activities” (J Nat Prod, 2020):
In brackets after ≈: the same amount, converted by molar mass. One block for each compound: values may come before it.

Legend:
[1] = system: Human immunodeficiency virus; test: Antiviral activity against HIV; type: functional, organism-based; settings: Human immunodeficiency virus 1
[2] = […] activity against Eupenicillium abidjanum IFO 8939; type: functional; settings: Penicillium abidjanum
Jurkat = test: Cytotoxicity against human Jurkat cells after 72 hrs by microtitre plate assay; type: functional, cell-based
[3] = Cytotoxicity against mouse NS-1 cells after 72 hrs by microtitre plate assay; type: functional, cell-based; settings: NS1, 72 h
HepG2 = test: Growth inhibition of human HepG2 cells; type: functional
LNCaP = test: Antitumor activity against human LNCaP cells; type: functional, cell-based
PC-3 = test: Antitumor activity against human PC-3 cells; type: functional, cell-based
CWR22R = test: Antitumor activity against human CWR22R cells; type: functional, cell-based; settings: 22Rv1

IC50 [1]: 10 µM
SMILES: CS[C@@]12C[C@H]3C(=O)CC[C@H](O)[C@H]3N1C(=O)[C@@]13C[C@H]4C(=O)C[C@@H](S1)[C@H](O)[C@H]4N3C2=O [EPICOCCIN O]

MIC [2]: 10 µg/mL (≈ 20.2 µM)
SMILES: COc1ccc([C@H]2SS[C@@]34C[C@]56O[C@H]5C=C[C@@H](O)[C@@H]6ON3C(=O)[C@@H]2N(C)C4=O)c(O)c1OC

IC50 [1]: 16 µM
SMILES: CS[C@@]12CC3=CC=C[C@H](O)[C@H]3N1C(=O)[C@@]13C[C@H]4C(=O)C[C@@H](SS1)[C@H](O)[C@H]4N3C2=O

SMILES: COc1ccc([C@H]2SS[C@@]34C[C@]5(O)[C@H](Cl)C=C[C@@H](O)[C@@H]5ON3C(=O)[C@@H]2NC4=O)c(O)c1OC
IC50 (Jurkat): 5.1 µM

IC50 [1]: 10 µM
SMILES: CS[C@@]12CC3=CC=C[C@H](O)[C@H]3N1C(=O)[C@@]13C[C@H]4C(=O)C[C@@H](S1)[C@H](O)[C@H]4N3C2=O

IC50 [1]: 10 µM
SMILES: CS[C@@]12CC3=CC=C[C@H](O)[C@H]3N1C(=O)[C@]13C[C@H]4C(=O)[C@H](C[C@H](O)[C@H]4N1C2=O)S3

SMILES: COc1ccc2cc(NC(=O)[C@@]34C[C@]5(O)[C@@H](C=C[C@@H](O)[C@@H]5ON3)SS4)c(=O)oc2c1OC
IC50 (Jurkat): 1.3 µM | IC50 [3]: 10 µM

IC50 [1]: 10 µM
SMILES: CS[C@@]12C[C@H]3C(=O)CC[C@H](O)[C@H]3N1C(=O)[C@@]13C[C@@H]4[C@@H]([C@@H](O)[C@@H](C[C@@H]4O)S1)N3C2=O

GI50 (HepG2): 8 µM
SMILES: CSC1c2ccccc2O[C@]12C(=O)N1O[C@]3(CCC=CC3=O)[C@@H](O)C1(SC)C(=O)N2C (stereo not given in full)

IC50 [1]: 10 µM
SMILES: CS[C@@]12C[C@H]3C(=O)CC[C@H](O)[C@H]3N1C(=O)[C@@]13C[C@@H]4[C@@H]([C@@H](O)C=C[C@@H]4S1)N3C2=O

IC50 [1]: 10 µM
SMILES: CS[C@@]12CC3=CC=C[C@H](O)[C@H]3N1C(=O)[C@@]13C[C@@H]4[C@@H]([C@@H](O)[C@@H](C[C@@H]4O)S1)N3C2=O

SMILES: COc1ccc([C@H]2SS[C@@]34C[C@]5(O)[C@H](Cl)C=C[C@@H](O)[C@@H]5ON3C(=O)[C@@H]2N(C)C4=O)c(O)c1OC
IC50 (LNCaP): 1.8 µM | IC50 (PC-3): 5.1 µM | IC50 (CWR22R): 0.51 µM
